The values that follow come from patent US12582646B2, “Method for treating drug or alcohol dependency” (AETHER THERAPEUTICS INC., priority 2019, dated 2026).

The target in data set [1] is T1, mu opioid receptor (Mus musculus, UniProt P42866).
T1 construct: from tissue; host or cells: living mice (whole-animal pharmacology)
Nature of the data set: internal unpublished: co-administration with morphine or methadone, subsequent opioid withdrawal, mice. It is filed as in vivo. Conditions: dose as low as 0.01 mg/kg given together with morphine or methadone. The text has this:
(§1) (See Corder G, Doolen S, Donahue R R, Winter M, Jutras B, He Y, Hu X, Wieskopf J S, Mogil J S, Storm D R, Wang Z J, McCarson K E, and Taylor B K, Constitutive μ-opioid receptor activity leads to long-term endogenous analgesia and dependence. Science 2013; 341,1394-1399; Corder G, Tawfik V L, Wang D, Sypek E I, Low S A, Dickinson J R, Sotoudeh C, Clark J D, Barres B A, Bohlen C J, Scherrer (2017). Loss of μ opioid receptor signaling in nociceptors, but not microglia, abrogates morphine tolerance without disrupting analgesia. Nat Med. 23:164-173; J. Oberdick, Y. L., M. A. Phelps, M. S. Yudovich, K. Schilling, and W. Sadee. Preferential delivery of an opioid antagonist to the fetal brain in pregnant mice. J. Pharmacol. Exp. Ther. 358: 22-30 (2016).

Data set [2] relates to mu opioid receptor. As to the kind of experiment: internal unpublished: co-administration with morphine or methadone, subsequent opioid withdrawal, guinea pigs. Conditions: dose as low as 0.01 mg/kg given together with morphine or methadone. The data set is classed as in vivo.
Text: as §1

Data set [3] addresses peripheral and central opioid receptors. Nature of the data set: blocking morphine iv effects (analgesia, slowing of bowel movement) in opioid naive subjects. The data set is classed as in vivo, humans. How it is done: Recommended doses are 20 mg (range 10-80 mg) once or twice daily for 4-8 days, then 40 mg (range 20-120 mg) once or twice daily for 1-4 weeks, and if necessary, further escalation to 100 mg (range 40-300 mg) once or twice daily for maintenance. […] Dosing schedules can be facilitated by designing sustained release formulations as described in preceding incorporated patents.

A short description of the next data set: oral bioavailability. The data set is classed as in vivo. Conditions: value assumed for oral dosing. How it is done: This step applies to opioid use disorders. […] The recommended initial dose is 2 mg naltrexol orally (assuming ˜30% oral bioavailability; estimated dosage range 0.5-10 mg), once or twice daily for 2-4 days, followed by 6 mg once or twice daily for 4-8 days (estimated dosage range 2-20 mg twice daily). Step 1 is designed to suppress peripheral effects of the opioid drug with minimal peripheral withdrawal symptoms, and reverse at least partially opioid dependence.
Opioid antagonist maintenance with 6-beta-naltrexol may require 100 mg (dosage range 40-300 mg) per day orally (assuming 20-40% bioavailability). […] Ceasing opioid use altogether must be medically supervised for at least one year to determine the rate of recidivism.

The subject of the next data set is opioid receptors. As to conditions: acutely morphine-dependent mice; cited from earlier work.
For data set [4], the target named is T1, mu opioid receptor. Conditions: 0.02 mg/kg co-injected s.c. with 20 mg/kg morphine for several days, juvenile mice; cited from earlier work.
Data set [5] relates to peripheral and central opioid receptors. As to conditions: methadone maintenance subjects, single intravenous dose 0.5-1 mg; cited from earlier work.
For data set [6] the following is noted: in vivo; cited from earlier work.
Data set [7] has as its system rats habituated to high alcohol consumption. Conditions: acute; cited from earlier work.
The test system of data set [8] is peripheral and central opioid receptors. As to the kind of experiment: intravenous 6beta-naltrexol in methadone maintenance subjects.
The subject of data set [9] is peripheral opioid receptors. Nature of the data set: peripherally selective activity (internal results). It is filed as in vivo. The text has this:
The invention embodies usage of any of these compounds or derivatives or metabolites thereof. […] In combinations, any opioid analgesic is a feasible component, embodied in the combination patents mentioned above. An example is a combination product of oxycodone or hydrocodone with 6beta-naltrexol.

Data set [10] addresses mu opioid receptor (Homo sapiens, UniProt P35372). Conditions: cited from earlier work.
In data set [11] the test system is peripheral and central opioid receptors. As to conditions: mice, given orally; cited from earlier work.
The subject of data set [12] is spontaneous opioid receptor activity. As to conditions: opioid dependent mice, 24 hours after the last morphine dose; cited from earlier work.
[13] abbreviates: 4 methadone replacement patients, IV doses up to 1 mg.

T1 sequence (P42866 whole entry): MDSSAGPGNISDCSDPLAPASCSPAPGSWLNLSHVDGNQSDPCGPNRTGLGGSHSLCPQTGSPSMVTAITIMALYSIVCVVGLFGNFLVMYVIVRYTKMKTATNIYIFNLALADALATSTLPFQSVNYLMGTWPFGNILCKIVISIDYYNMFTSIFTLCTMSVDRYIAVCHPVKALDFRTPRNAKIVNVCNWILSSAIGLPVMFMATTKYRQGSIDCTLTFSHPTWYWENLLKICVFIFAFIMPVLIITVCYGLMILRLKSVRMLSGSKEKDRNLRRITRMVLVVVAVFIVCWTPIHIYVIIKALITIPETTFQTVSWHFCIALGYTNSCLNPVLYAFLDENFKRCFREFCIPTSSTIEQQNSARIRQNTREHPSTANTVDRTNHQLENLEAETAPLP
Chain of mu opioid receptor (Homo sapiens, UniProt P35372) (P35372 whole entry, species assumed): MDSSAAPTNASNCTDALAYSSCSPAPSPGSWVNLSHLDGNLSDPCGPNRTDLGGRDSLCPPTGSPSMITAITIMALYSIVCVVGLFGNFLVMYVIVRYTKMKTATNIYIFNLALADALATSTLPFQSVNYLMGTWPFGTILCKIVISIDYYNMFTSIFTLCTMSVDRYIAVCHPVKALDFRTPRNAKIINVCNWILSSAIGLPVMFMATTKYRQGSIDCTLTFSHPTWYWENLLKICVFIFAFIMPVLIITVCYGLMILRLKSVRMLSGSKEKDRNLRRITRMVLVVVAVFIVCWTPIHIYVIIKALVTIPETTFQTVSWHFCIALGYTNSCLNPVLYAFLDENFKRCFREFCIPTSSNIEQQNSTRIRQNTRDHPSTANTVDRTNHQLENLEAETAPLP

As to `Oc1ccc2c3c1O[C@H]1[C@H](O)CC[C@@]4(O)[C@@H](C2)N(CC2CC2)CC[C@]314` [6beta-naltrexol], the subsequent opioid withdrawal result on mu opioid receptor [1] and with mu opioid receptor [2] was “reduces or prevents subsequent opioid withdrawal” each time. Besides, the “IC50 for blocking morphine induced slowing of bowel movement” value in [3] (iv) is given as approximately 3 mg. Also, the “block of analgesia caused by 10 mg morphine iv” value in data set [3] (single dose of 20 mg iv, opioid naive subjects) was “failed to block analgesia”. Moreover, the oral bioavailability in the data set “oral bioavailability” (listed as 6-beta-naltrexol) is 20-40%; in “oral bioavailability” (listed as naltrexol), approximately 30%. The “effect on naloxone induced withdrawal jumping” value with opioid receptors is given as “prevent naloxone (inverse agonist) induced withdrawal jumping”. Moreover, the “naloxone-withdrawal jumping after co-injection with morphine” value on mu opioid receptor [4] is given as “significantly reduced”. In data set [5], the central withdrawal symptoms result is recorded as “no central withdrawal symptoms”. Besides, in data set [5], the “effect on opioid induced constipation” value is “can reverse opioid induced constipation”. In addition, the “half-life compared with typical opioid analgesics” value in [6] was “longer half-life”. The “alcohol and sucrose intake” value in data set [7] was “prevents both alcohol and sucrose intake acutely, but only at high doses”. The “tolerated IV dose” value in data set [8] (4 methadone replacement patients sensitive to 0.05 mg naloxone i.v.) is given as “up to 1 mg”. Further, the bowel effect entry in data set [8] (setting [13]) was “bowel movements”. Also, the withdrawal symptoms result in data set [8] (setting [13]) was “some additional peripheral, but no central, withdrawal symptoms”.

On to `CC(=O)N[C@@H]1CC[C@@]2(O)[C@H]3Cc4ccc(O)c5c4[C@@]2(CCN3CC2CC2)[C@@H]1O5` [6beta-naltrexamide], for which, in data set [9], the peripherally selective activity result was “strong peripherally selective activity”. For the same molecule, the “type of opioid antagonism” value on mu opioid receptor [10] was “neutral antagonism”.

For the molecule `O=C1CC[C@@]2(O)[C@H]3Cc4ccc(O)c5c4[C@@]2(CCN3CC2CC2)[C@H]1O5` [naltrexone], the “potency in blocking peripheral and central opioid analgesic effects” value in data set [11] is reported as “equally potent”. In data set [12], the “withdrawal elicited by the antagonist” value is on record as “robust withdrawal”.
